Laboratory results reported in US20180250351A1 (priority 2015, published 2018).
Where two headings read alike, the source gives them in different places. Each block holds one molecule with its values, some of them ahead of it.

Experiments:
[1] = target: T1, UDP-glucose dehydrogenase (UDP-GDH) (Homo sapiens, UniProt O60701); assay: Spectrophotometric test of inhibition of UDP-glucose dehydrogenase; type: biochemical; settings: for type of inhibition of UDP-GDH: in relation to enzyme/substrate and cofactor NAD+; for IC50: 37° C., 340 nm
T1 sequence (O60701 1-494): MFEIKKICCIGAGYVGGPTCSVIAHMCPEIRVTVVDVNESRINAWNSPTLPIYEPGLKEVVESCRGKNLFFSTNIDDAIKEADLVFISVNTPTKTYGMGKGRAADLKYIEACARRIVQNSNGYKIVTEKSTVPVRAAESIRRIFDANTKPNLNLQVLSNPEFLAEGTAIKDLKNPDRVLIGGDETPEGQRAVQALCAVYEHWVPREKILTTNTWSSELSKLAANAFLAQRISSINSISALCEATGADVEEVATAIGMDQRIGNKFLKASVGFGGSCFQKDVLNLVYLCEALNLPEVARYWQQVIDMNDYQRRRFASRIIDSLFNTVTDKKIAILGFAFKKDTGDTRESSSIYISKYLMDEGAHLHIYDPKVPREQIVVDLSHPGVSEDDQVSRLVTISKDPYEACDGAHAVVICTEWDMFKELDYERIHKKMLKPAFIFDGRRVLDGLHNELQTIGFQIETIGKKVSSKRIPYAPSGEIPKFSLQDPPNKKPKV
Description: The UDP-GDH enzyme catalyses the oxidation of the UDP-glucose using the NAD+ as the oxidant agent, according to the following formula: […]
UDP-glucose+2NAD++H2O→UDP-glucuronic acid+2NADH+2H+
For the spectrophotometric evaluation of the enzymatic activity the following reactive mix has been used:
The test has been done at 37° C. and monitored at 340 nm for 20 minutes.
The algae has thus been suspended in different concentrations (10-50-100 mg/ml) in distilled water on the one hand and in 100% ethanol on the other; then homogenized and afterwards centrifuged at 5000 rpm for 10 minutes. We have then checked through spectrophotometry the presence in the two extracts of the relevant components, verifying the presence of phycocyanins at 620 nm for the water extract and of carotenoids at 400 nm and chlorophyll at 664 nm for the ethanol extract.

[2] = animals; cited from earlier work
[3] = humans; absolute terms, curcumin alone at the non detectable level; cited from earlier work
[4] = human, in vivo
[5] = curcumin dose 100 mg/kg (NPs) or 250 mg/kg (others); cited from earlier work

Molecule: phycocyanobilin
type of inhibition of UDP-GDH [1]: directly competitive
IC50 ([1]; purified pigment): 2.7 nM

type of inhibition of UDP-GDH [1]: mixed type
IC50 ([1]; purified molecule): 2400 nM
Molecule: phycocyanin

Molecule: O=C(/C=C/C=C/c1ccc2c(c1)OCO2)N1CCCCC1 [Piperine, piperine]
plasma concentration increase of curcumin [2]: 154%
plasma concentration increase of curcumin [3]: 2000%

time of absorption peak after ingestion [4]: approximately 15 min
time of peak after ingestion [4]: approximately 1 hour
Molecule: COc1cc(/C=C/C(=O)CC(=O)/C=C/c2ccc(O)c(OC)c2)ccc1O [curcumin alone, curcumin]
AUC [5]: 312 ng·h/mL
Cmax [5]: 90.3 ng/mL
